Results: patent US5652250A, “N-substituted β-aryl- and β-heteroaryl-α-cyanoacrylamide derivatives and process for their preparation” (Pharmacia S.p.A., priority 1994, dated 1997)

How the values were obtained:
[1] = target: p45 v-abl tyrosine kinase; assay: p45 v-abl Kinase Assay ((Val^5)-Angiotensin II phosphorylation); assay type: biochemical, Abelson murine leukemia virus; conditions: (Val^5)-Angiotensin II 2 mM, ATP 50 μM, pH 8.0, 30° C., read-out: Inhibition of p45 v-abl kinase IC50
Experimental: The enzyme used in our test was the p45 v-abl tyrosine kinase which represents the catalytic domain of the Abelson tyrosine kinase (isolated from the Abelson murine leukemia virus). The p45 v-abl kinase was produced and isolated as described by Wang et al. in J. Biol. Chem. 260, 64 (1985) and by Ferguson et al. in J. Biol. Chem. 260, 3652 (1985) and in Biochem. J. 257, 321 (1989).
(Val^5)-Angiotensin II phosphorylation was performed by incubation with 40 ng of purified abl-kinase and (γ^32 P)-ATP, in 50 μl of buffer containing Tris-HCl 25 mM, pH 8.0, MgCl2 10 mM and dithiothreitol 0.1 mM (kinase buffer). The reaction mixture was incubated for the indicated time at 30° C. and the reaction stopped by adding 50 μl of 5% trichloroacetic acid. After a brief incubation on ice, tubes were centrifuged. The supernatants were spotted on phosphocellulose paper squares (Whatman P-81) and washed extensively in acetic acid. The radioactivity bound to dried phosphocellulose squares was measured in a liquid scintillation counter. IC50 values were calculated from triplicate determinations of each experimental point. Each inhibitor was tested at concentrations ranging from […] in the presence of fixed concentrations of peptide (2 mM) and ATP (50 μM).

[2] = test system: K562 cells; assay: K562 Cell Growth Inhibition Assay; assay type: cell-based; conditions: K562 human myelogenous leukemia cells, 72 h
Experimental: K562 cells, a human myelogenous leukemia cell line, were seeded into a 24 wells tissue culture plate (Falcon 3047) (10000/well) in the presence of increasing concentrations of the compounds. After 72 h, cells were harvested and were counted using a cell counter (Coulter Counter--ZM). The percent of inhibition was evaluated in respect to the untreated control cells.

SMILES: N#CC(=Cc1ccc(O)c2ncccc12)C(=O)Nc1ccccc1 [N-phenyl β-(8-hydroxy-5-quinolyl)-α-cyanoacrylamide]
- IC50 [1]: 3.4 µM
- IC50 [2]: 0.66 µM
